Series [1] relates to enkephalinases in human blood serum. Put plainly: Activity of enkephalinases in human blood serum ([3H]Leu-enkephalin disintegration). It counts as biochemical. The settings on record: 0.15 μM [3H]Leu-enkephalin. The procedure: The ability of peptide H-Glu-Asp-Gly-OH to influence the activity of endogen opioid peptide degradation enzymes, i.e. […], was estimated in kinetic studies judging by disintegration of low concentrations (0.15 μM) of [^3H]Leu-enkephalin by human blood serum enzymes. Commonly used enkephalinase inhibitors N-carboxymethyl-Phe-Leu (N-CMPL) and bacitracin were used as comparison substances. Summary enkephalinase activity of the blood serum taken from 5 healthy donors, was estimated in vitro. Results were evaluated after 4 studies.

Details of series [2]: species or system male guinea pigs. The conditions noted are these: guinea pig, in vivo. The procedure: (§1) Common toxicity of peptide H-Glu-Asp-Gly-OH was studied according to the requirements stated in the “Manual for experimental (pre-clinical) study of new pharmacological substances” (2000): acute toxicity in case of single administration of the substance, as well as sub-acute and chronic toxicity in case of long-term administration of the peptide.
The studies of chronic toxicity were conducted for 6 months, basing on the term of recommended clinical administration of the substance, on 92 male guinea pigs with body weight of 310-350 g. Experimental animals received the peptide daily, once a day, intramuscularly, for 6 months in the doses of 1 μg/kg, 0.1 mg/kg, 1 mg/kg in 0.5 ml of sterile 0.9% NaCl solution. Control animals received sterile 0.9% NaCl solution in the same volume and by the same schedule. Traditional methods were used for the evaluation of the following indices of the animals' peripheral blood: the quantity of erythrocytes, hemoglobin, reticulocytes, thrombocytes, leukocytes, leukocyte formula, erythrocyte sedimentation rate (ESR), erythrocyte resistance. Alongside with that, the content of total protein in the serum was identified using Lowry's method, as well as potassium and sodium content using the method of plasma spectrophotometry. After the completion of the experiment pathomorphologic studies of animal brain and spinal cord, spinal cord ganglia, thyroid gland, parathyroid glands, adrenal glands, testis, pituitary gland, heart, lungs, aorta, liver, kidneys, urinary bladder, pancreas, stomach, small intestine, large intestine, thymus, spleen, lymph nodes and bone marrow were performed.

For series [3], the system named is biogen amines in rat brain cortex. Put plainly: Level of biogen amines in rat brain cortex after peptide administration. It is filed as in vivo. The settings on record: 2.5 μg/kg intraperitoneal daily for 5 days, vs control (FIG. 1). The procedure:
(§2) The study was performed on 27 white mongrel rats of both sexes with body weight of 300-320 g.
(§3) The animals were subjected to intraperitoneal injection of peptide H-Glu-Asp-Gly-OH in the dose of 2.5 μg/kg in 0.5 ml of sterile 0.9% NaCl solution daily for 5 days.
(§4) Control rats received sterile 0.9% NaCl solution in the same volume and by the same schedule.
(§5) Upon completion of peptide administration the animals were decapitated, and the content of noradrenaline, dopamine, 5-oxyindolacetic acid, serotonin and histamine was evaluated in the brain cortex and blood serum.

Series [4] in a line: Human functional status under low oxygen partial pressure (pressure chamber rise to 5000 meters). It is filed as in vivo. The conditions noted are these: healthy men. As for the experimental part: Effect of peptide H-Glu-Asp-Gly-OH on human functional status and working ability in extreme conditions under the effect of low oxygen partial pressure was studied by examining 80 healthy men aged 20-22 years. The participants of the study were subdivided into 3 groups: 20 men formed the control group, while main groups I and II consisted of 30 persons each. Background study, including the examination of respiratory, cardiovascular and central nervous systems was performed on the first day of the experiment.
After the completion of background study the members of main group I began receiving the pharmaceutical composition, containing peptide H-Glu-Asp-Gly-OH as its active base, by intranasal infusions, in the dose of 5.0 mg in 1 ml of physiological solution (subgroup I), in the dose of 100.0 μg (subgroup II) and in the dose of 1.0 μg in 1.0 ml of physiological solution (subgroup III) […], for 2 days. Thus, the members of main group I received the peptide H-Glu-Asp-Gly-OH intranasally in the dose of 10 mg (subgroup I), 200 μg (subgroup II) and 2 μg (subgroup III) per course.
Members of main group II began receiving the pharmaceutical composition, containing the peptide H-Glu-Asp-Gly-OH as its active base, after the completion of background study, intramuscularly, in the dose of 5.0 mg in 1 ml of physiological solution (subgroup I), in the dose of 100.0 μg (subgroup II) and in the dose of 1.0 μg in 1.0 ml of physiological solution (subgroup III) daily, once a day, for 2 days.
Members of the control group received placebo in the form water for injections.
On the 4th day of the experiment the members of all 3 groups were subjected to the effect of hypoxic hypoxia by “rising” them to the altitude of 5000 meters for 60 minutes of exposition without auxiliary oxygen supply, which was imitated using the pressure chamber SBK-80. Participants of the experiment were shortly examined before the beginning of the “rise”, during the experiment and after its completion. On the 5th day of the experiment all participants were subjected to a full scale final examination. During the study reactive anxiety in all participants was on the moderate level (31-45 points). […] After 2 days of administration of the pharmaceutical composition containing peptide H-Glu-Asp-Gly-OH in different doses as its active base reactive anxiety in participants of the experiment was reduced by 10-13% depending on the dosage and method of administration of the pharmaceutical composition as compared to the members of the control group.

Series [5] concerns biogen amines in rat blood serum. Briefly: Level of biogen amines in rat blood serum after peptide administration. It is filed as in vivo. The settings on record: 2.5 μg/kg intraperitoneal daily for 5 days, vs control (FIG. 2). The procedure: as §2, §3, §4, §5
Series [6] has as its system c-fos gene expression in the neurons of rat hypothalamic paraventricular nucleus. Put plainly: c-fos gene expression in neurons of rat hypothalamic paraventricular nucleus under emotional stress. It is filed as in vivo, Wistar rats. As for the experimental part: The effect of peptide H-Glu-Asp-Gly-OH was studied in the paraventicular nucleus of hypothalamus (PVH) in stress-resistant and stress-prone animals, as well as in rats exposed to emotional stress.
The experiments were conducted on 28 Wistar rats.
Behavior of the animals was preliminarily (for the purpose of identifying the extent of their resistance to emotional stress) estimated in the “open field” test. The effectiveness of peptide H-Glu-Asp-Gly-OH was studied on stress-resistant and stress-prone rats. Peptide H-Glu-Asp-Gly-OH was administered intraperitoneally in the doses of 0.1 and 0.01 μg per rat 7-10 days after the first “open field” test. One hour after the injection the rats were exposed to the 60 minutes emotional stress, which was modulated by motional restriction.
To identify the cells, containing Fos protein, which is a product of the early c-fos gene expression, an immunohystochemical investigation of brain section with automated counting of Fos-positive cells was performed. The peculiarities of c-fos gene induction were studied in the PVH.

The nature of series [7]: Sub-acute toxicity, 90 days intramuscular administration. It counts as in vivo, white mongrel male rats. The settings on record: rats; intramuscular daily for 90 days; doses exceeding the therapeutic one by 100-1000 times.
Excerpt: as §1
Sub-acute toxicity was studied on 64 white mongrel male rats with body weight of 180-220 g. Experimental animals daily, once a day, for 90 days received the substance intramuscularly in the doses of 1 μg/kg, 0.1 mg/kg, 1 mg/kg in 0.5 ml of sterile 0.9% NaCl solution. Control animals received sterile 0.9% NaCl solution in the same volume. Morphological composition and properties of the animals' peripheral blood was studied before the administration of the substance, as well as on the 30th, 60th and 90th day after the beginning of the administration of the substance. Biochemical and coagulologic indices of the blood were studied upon completion of the experiment.

Series [8] is described as follows: Acute toxicity, single intramuscular administration. The settings on record: mice, 1-5 mg/kg, dose exceeding the therapeutic one by more than 5000 times. It counts as in vivo, white mongrel male mice.
Excerpt: as §1
Acute toxicity was studied on 66 white mongrel male mice with body weight of 20-22 g. The animals were randomly subdivided into 6 equal groups. The substance was administered to the animals once, intramuscularly, in the doses of 1 mg/kg, 2 mg/kg, 3 mg/kg, 4 mg/kg, 5 mg/kg in 0.25 ml of sterile 0.9% NaCl solution. Control animals received 0.9% NaCl solution in the same volume.

Series [9] relates to c-Fos protein in rat pineal gland. Put plainly: c-Fos protein level and parenchyma status in rat pineal gland in osmotic stress. It is filed as in vivo. The settings on record: rats, 48-hour osmotic stress. As for the experimental part: Effect of intranasally administered H-Glu-Asp-Gly-OH peptide on c-Fos protein content in stress-affected rat pineal gland was studied. Immunohistochemical study of c-Fos protein content was performed in two groups of rats—intact and subjected to 48-hour osmotic stress. The latter were intranasally administered with peptide H-Glu-Asp-Gly-OH in the dose of 0.5 μg per animal in 0.1 ml of sterile physiological 0.9% NaCl solution (last infusion was performed 2 hours before taking the material). Pineal gland parenchyma in all groups of animals was studied using light optical appliances.

The mark [10] stands for this setting: end of the test, depending on the dosage and method of administration, placebo 10-11%.
Setting [11] is: 10 μg/ml, human blood serum of 5 healthy donors (FIG. 5).

The structures appear in SMILES notation. Positions of bridges follow the written chain, without caps; N, C: chain ends. Non-standard residues stand in square brackets, D forms with d. Residues, ends and D or L forms follow the SMILES beside them. *: point of attachment. Ileψ(thiazoline)Cys = CC[C@H](C)[C@H](N)C1=N[C@H](C(=O)*)CS1; dOrn = NCCC[C@@H](N)C(=O)O

On to `CC[C@H](C)[C@H](N)C1=N[C@H](C(=O)N[C@@H](CC(C)C)C(=O)N[C@H](CCC(=O)O)C(=O)N[C@H](C(=O)N[C@H]2CCCCNC(=O)[C@H](CC(N)=O)NC(=O)[C@@H](CC(=O)O)NC(=O)[C@H](Cc3cnc[nH]3)NC(=O)[C@@H](Cc3ccccc3)NC(=O)[C@H]([C@@H](C)CC)NC(=O)[C@@H](CCCN)NC2=O)[C@@H](C)CC)CS1` [bacitracin] ({Ileψ(thiazoline)Cys}-L[dE]IK[dOrn]I[dF]H[dD]N; lactam 4-C), for which, in series [1] (50 μg/ml, human blood serum of 5 healthy donors), the “activity of blood serum enkephalinases” value was “comparable”.

With `N[C@@H](CCC(=O)O)C(=O)N[C@@H](CC(=O)O)C(=O)NCC(=O)O` [peptide H-Glu-Asp-Gly-OH, glutamyl-aspartyl-glycine] (H-Glu-Asp-Gly-OH), in series [2], the “chronic toxicity: side effects” value was “absence of side effects”; the “effect on ESR, erythrocyte resistance and biochemical indices of the blood serum” value is on record as “No reliable effect”; the “pathologic changes (general status, blood indices, internal organs, cardiovascular and respiratory systems, liver and kidney functions)” value is recorded as “did not reveal any pathologic changes”. Further, in series [3], the “dopamine content in brain cortex” value is given as “reliable increase”, the “noradrenaline content in brain cortex” value is “reliable increase” and the “serotonin content in brain cortex” value is “reliable increase”. The “study participants showing good tolerability to hypoxia” value in series [4] (5000 meters, 60 minutes, placebo 60%) is 80-90%. Besides, in [4] (after 2 days of administration, different doses, intranasal or intramuscular), the “reduction of reactive anxiety as compared to the control group” value is listed as 10-13%. The “lung ventilation in case of dosed physical load” value in series [4] (after hypoxia impact) is on record as “reduced lung ventilation”. Also, the “increase in heart rate (HR) caused by hypoxia” value in series [4] (depending on the dose and method of administration, placebo 30-40%) is reported as 10-20%. For the same molecule, in series [4] (setting [10]), the “increase in maximum oxygen consumption” value is reported as 15-20% and the “increase in physical working capacity index (PWC 170)” value is 15-20%. Moreover, the “subjective status under hypoxic hypoxia versus initial level” value in series [4] (intramuscular administration, different doses) is reported as “equal to the initial level”. In addition, the “decrease in the subjective status under hypoxic hypoxia” value in series [4] (intranasal infusion) is reported as 4-5%. For the same molecule, in [4] (next day after the impact of hypoxia, independently of the method of administration), the “reactive anxiety level versus initial level” value was “equal to the initial one”. In addition, the “subjective status better than the initial level” value in [4] (next day after the impact of hypoxia, intramuscular administration) was determined as 15%. In [4] (next day after the impact of hypoxia, intranasal infusion), the “subjective status better than the initial level” value is on record as 10%. In addition, the “activity of blood serum enkephalinases” value in series [1] (setting [11]) is reported as “inhibited”. In series [5], the “dopamine content in blood serum” value was “decrease”, the “histamine content in blood serum” value is recorded as “decrease” and the “serotonin content in blood serum” value is on record as “decrease”. Further, the “number of Fos-positive neural cells in PVH” value in series [6] (0.01 μg per rat intraperitoneal, stress-resistant rats, both not exposed and exposed to stress) is given as “increase”. Also, the “number of Fos-positive neurons in PVH” value in series [6] (0.1 μg per rat intraperitoneal, against the background of stress, stress-resistant animals) is listed as “increased”. Moreover, in series [6] (0.1 μg per rat intraperitoneal, both stress-resistant and stress-prone rats), the “number of Fos-positive neural cells in PVH” value was “reduced”. Besides, in series [7], the “sub-acute toxicity: side effects” value is “absence of side effects”. Besides, the “acute toxicity: toxic reactions” value in series [8] is on record as “does not cause toxic reactions”. The “content of c-Fos protein in pinealocytes” value in series [9] (0.5 μg per animal intranasal (FIG. 3)) is listed as “Mild but reliable increase”. Moreover, the “osmotic stress induced dilation of capillaries and pericapillary space in pineal gland parenchyma” value in [9] (0.5 μg per animal intranasal (FIG. 4)) is on record as “partial reduction”.

For the molecule `CC(C)C[C@H](NC(=O)[C@H](Cc1ccccc1)NCC(=O)O)C(=O)O` [N-CMPL, N-carboxymethyl-Phe-Leu], the “activity of blood serum enkephalinases” value in [1] (setting [11]) is “comparable”.

Source of the values: US8071556B2, “Peptide substance revealing a stress protective effect, pharmaceutical composition on its base, and the method of its application” (Obschestvo S Ogranichennoi Otvetstevennostyu “Sia Peptides”, priority 2006, dated 2011).
